Laboratory results: paper PMC9820316, “Novel Arylpiperazine Derivatives of Salicylamide with α1-Adrenolytic Properties Showed Antiarrhythmic and Hypotensive Properties in Rats” (International Journal of Molecular Sciences, 2022)
Marks after values point to notes of the source that are not given here.

Key:
α1-adrenergic receptors = assay: α1-adrenoceptor radioligand binding assay ([3H]-prazosin, rat cortex); settings: rat cortex tissue, mean ± SEM
Method: (§1) The α1- and α2-adrenoceptor radioligand binding assays were performed on the rat cerebral cortex using previously described methods. […] The brains were homogenized using the ULTRA-TURRAX homogenizer in 10 mL of an ice-cold 50 mM Tris-HCl buffer (pH 7.6). The homogenates were centrifuged at 20,000× g for 20 min (0–4 °C). Subsequently, the cell pellet was resuspended in the Tris–HCl buffer and centrifuged again. Radioligand binding assays were carried out in plates (MultiScreen/Millipore). The final incubation mixture, with a volume of 300 μL, consisted of 240 μL of the tissue suspension, 30 μL of the radioligand solution, and 30 μL of the buffer containing 7–8 concentrations of the studied compounds. In order to measure the unspecific binding, 10 μM phentolamine (for [^3H]-prazosin) or 10 μM clonidine (for [^3H]-clonidine) were utilized. The incubation was completed by rapid filtration through Whatman GF/C filters using a vacuum manifold (Millipore). The filters were then washed twice with the assay buffer and placed in scintillation vials with a liquid scintillation cocktail. Radioactivity was measured in a WALLAC 1409 DSA liquid scintillation counter (Perkin Elmer, USA). All the assays were performed in duplicates, and the inhibitory constants (Ki) were calculated.

α2-adrenergic receptors = assay: α2-adrenoceptor radioligand binding assay ([3H]-clonidine, rat cortex); settings: rat cortex tissue, mean ± SEM, n.a. = did not bind at 10^−5 M
Method: as §1

[1] = tested on: adrenaline-induced arrhythmia model in rats; assay: Prophylactic antiarrhythmic activity in adrenaline-induced arrhythmia; type: in vivo, rat; settings: for Blocks / Bradycardia / Extrasystoles / Mortality: number of animals with event
Method: (§2) The animals were anesthetized with thiopental (75 mg/kg ip). Depending on the model, either adrenaline, aconitine, or calcium chloride was used as an arrhythmogen. Adrenaline and aconitine were administered iv at a dose of 20 µg/kg, whereas calcium chloride was administered at a dose of 140 mg/kg to induce heart rhythm disturbances. The tested compounds were injected iv 15 min before the arrhythmogen. Aspel ASCARD apparatus (standard II lead, with the tape speed 50 mm/s and voltage calibration 1 mV = 1 cm) was used for ECG measurements. […] The ED50 was calculated using the method of Litchfield and Wilcoxon.

[2] = tested on: calcium chloride-induced arrhythmia model in rats; assay: Prophylactic antiarrhythmic activity in calcium chloride-induced arrhythmia; type: in vivo, rat; settings: 5 mg/kg iv 15 min before calcium chloride 140 mg/kg; number of animals with event
Method: as §2

normal ECG in rats = assay: Effect on a normal electrocardiogram in rats; type: in vivo, rat; settings: 5 mg/kg iv; for HR—heart rate / PQ interval / QRS complex / QTc (Bazzett's formula): mean ± SD; for PQ interval / QRS complex / QTc (Bazzett's formula): in ms (unit assumed)
Method: The procedure was performed to exclude the negative effects of the tested compounds on the normal ECG, according to the method described earlier. […] Firstly, animals were anesthetized with thiopental (75 mg/kg ip). […] The influence on PQ, QTc interval, QRS complex, and heart rate was evaluated. The Bazzett’s formula: QTc = QT/√RR was used to calculate QTc. All the studied compounds were administered at a dose of 5 mg/kg.

normotensive rats = assay: Influence on blood pressure in the normotensive rats; type: in vivo, rat; settings: for DBP—diastolic blood pressure / SBP—systolic blood pressure: mean ± SD
Method: The experiment was performed according to the method described earlier. Normotensive Wistar rats were anesthetized with thiopental (75 mg/kg ip). The right carotid artery was cannulated with a polyethylene tube filled with heparin solution, using a Datamax apparatus (Columbus Instruments, Columbus, OH, USA). After 15 min of the stabilization period, the studied compounds were administered iv, and their effect on systolic and diastolic blood pressure was evaluated (Figure 4A).

[3] = tested on: pressor response to methoxamine in rats; assay: Influence on blood vasopressor response to methoxamine in rats; type: in vivo, rat; settings: 5 mg/kg iv, methoxamine 150 μg/kg before and 5 min after compound
Method: The experiment was performed to establish the effect of the studied derivatives on the pressor response to methoxamine (150 µg/kg, iv), according to the methods described previously. Normotensive Wistar rats were anesthetized with thiopental (75 mg/kg ip). The right carotid artery was cannulated with a polyethylene tube filled with heparin solution using a Datamax apparatus (Columbus Instruments, Columbus, OH, USA). After a 15-min stabilization period, the pressor response to methoxamine before (control) and 5 min after the administration of the tested compounds was measured (Figure 4B). The tested compounds were administered at the lowest hypotensive dose.

[4] = tested on: adrenaline-induced arrhythmia model in rats; assay: Therapeutic antiarrhythmic activity in adrenaline-induced arrhythmia; settings: 5 mg/kg iv immediately after adrenaline 20 µg/kg; number of animals with event
Method: The experiments were carried out according to the method described by Szekeres and Papp [71]. The heart rhythm disturbances, such as extrasystoles, conduction blocks, and bradycardia, were induced by iv injection of adrenaline (20 µg/kg) to anesthetized rats (thiopental, 75 mg/kg, ip). […] The Aspel ASCARD apparatus (standard II lead, with a tape of speed 50 mm/s and voltage calibration of 1 mV = 1 cm) was used for the ECG measurements. The ECG was recorded during the first 2 min and in the 5th, 10th, and 15th min after the adrenaline injection (Figure 3B). The lack or decreased amount of extrasystoles, atrioventricular blocks, and bradycardia in the ECG recordings compared to the control group was the criterion of antiarrhythmic activity [72].
Automated ECG waveform analysis was evaluated as described earlier [55], using Eleven Maze software version 0.1 from Eleven Products Sp. z o.o. […] The software, under expert supervision, recognized and classified the heart rhythm irregularities. It also calculated PQ, QRS, QTc, and rate parameters.

[5] = 0.25 mg/kg iv 15 min before adrenaline 20 μg/kg
[6] = 0.5 mg/kg iv 15 min before adrenaline 20 μg/kg
[7] = 1 mg/kg iv 15 min before adrenaline 20 μg/kg
[8] = 0 min (prior to administration)
[9] = 2.5 mg/kg iv, 0 min (before administration)
[10] = 5.0 mg/kg iv, 0 min (before administration)

## COc1ccccc1N1CCN(Cc2ccc(COc3ccccc3C(N)=O)cc2)CC1.Cl [JJGW12, 2-[(4-{[4-(2-metoxyphenyl)piperazin-1-ylo]methyl}phenyl)metoxy}benzamide hydrochloride]
α1-adrenergic receptors
  Adrenergic Receptors—pKi α1: 7.41 ± 0.01
α2-adrenergic receptors
  Adrenergic Receptors—pKi α2: 6.11 ± 0.01
[1]; [5]
  Blocks: 6/6
  Bradycardia: 5/6
  Extrasystoles: 6/6
  Mortality: 3/6
[1]; [6]
  Blocks: 4/5
  Bradycardia: 3/5
  Extrasystoles: 4/5
  Mortality: 0/5
[1]; [7]
  Blocks: 3/5
  Bradycardia: 1/5
  Extrasystoles: 3/5
  Mortality: 0/5
[1]; prophylactic, iv 15 min before adrenaline 20 μg/kg, confidence limits in brackets (Litchfield and Wilcoxon)
  ED50: 0.44 (0.10–1.98) mg/kg
[2]
  Blocks: 6/6
  Bradycardia: 6/6
  Extrasystoles: 6/6
  Fibrillations: 4/6
  Mortality: 6/6
Normal ECG in rats
  effect on the heart rate during the ECG recording: did not affect the heart rate
Normal ECG in rats; [8]
  HR—heart rate: 254.6 ± 41.2
  PQ interval: 44.1 ± 6.2
  QRS complex: 41.9 ± 2.1
  QTc (Bazzett's formula): 190.8 ± 15.2
Normal ECG in rats; 5 min
  HR—heart rate: 256.8 ± 47.1
  PQ interval: 43.6 ± 1.2
  QRS complex: 44.5 ± 3.6
  QTc (Bazzett's formula): 194.3 ± 16.8
Normal ECG in rats; 10 min
  HR—heart rate: 255.2 ± 53.6
  PQ interval: 45.9 ± 2.4
  QRS complex: 44.2 ± 2.3
  QTc (Bazzett's formula): 190.3 ± 25.9
Normal ECG in rats; 15 min
  HR—heart rate: 250.2 ± 51.5
  PQ interval: 45.5 ± 3.1
  QRS complex: 45.2 ± 5.9
  QTc (Bazzett's formula): 195.8 ± 25.5
Normotensive rats; [9]
  DBP—diastolic blood pressure: 95.0 ± 16.0 mmHg
  SBP—systolic blood pressure: 122.2 ± 15.6 mmHg
Normotensive rats; 2.5 mg/kg iv, 5 min
  DBP—diastolic blood pressure: 94.5 ± 16.5 mmHg
  SBP—systolic blood pressure: 120.7 ± 13.8 mmHg
Normotensive rats; 2.5 mg/kg iv, 10 min
  DBP—diastolic blood pressure: 87.5 ± 23.0 mmHg
  SBP—systolic blood pressure: 114.5 ± 10.6 mmHg
Normotensive rats; 2.5 mg/kg iv, 20 min
  DBP—diastolic blood pressure: 83.5 ± 22.4 mmHg
  SBP—systolic blood pressure: 109.7 ± 9.3 mmHg
Normotensive rats; 2.5 mg/kg iv, 30 min
  DBP—diastolic blood pressure: 84.0 ± 21.4 mmHg
  SBP—systolic blood pressure: 106.5 ± 13.1 mmHg
Normotensive rats; 2.5 mg/kg iv, 40 min
  DBP—diastolic blood pressure: 87.8 ± 16.7 mmHg
  SBP—systolic blood pressure: 108.8 ± 11.8 mmHg
Normotensive rats; 2.5 mg/kg iv, 50 min
  DBP—diastolic blood pressure: 89.3 ± 13.4 mmHg
  SBP—systolic blood pressure: 110.0 ± 7.5 mmHg
Normotensive rats; 2.5 mg/kg iv, 60 min
  DBP—diastolic blood pressure: 89.2 ± 13.9 mmHg
  SBP—systolic blood pressure: 110.5 ± 8.1 mmHg
Normotensive rats; [10]
  DBP—diastolic blood pressure: 95.7 ± 6.0 mmHg
  SBP—systolic blood pressure: 122.5 ± 11.9 mmHg
Normotensive rats; 5 mg/kg iv, 50th min since administration
  decrease of the systolic blood pressure: 13%
Normotensive rats; 5.0 mg/kg iv, 5 min
  DBP—diastolic blood pressure: 87.7 ± 7.0 mmHg
  SBP—systolic blood pressure: 120.7 ± 9.8 mmHg
Normotensive rats; 5.0 mg/kg iv, 10 min
  DBP—diastolic blood pressure: 89.3 ± 8.1 mmHg
  SBP—systolic blood pressure: 114.5 ± 9.1 mmHg
Normotensive rats; 5.0 mg/kg iv, 20 min
  DBP—diastolic blood pressure: 88.5 ± 9.0 mmHg
  SBP—systolic blood pressure: 112.8 ± 10.0 mmHg
Normotensive rats; 5.0 mg/kg iv, 30 min
  DBP—diastolic blood pressure: 87.8 ± 8.8 mmHg
  SBP—systolic blood pressure: 111.5 ± 10.4 mmHg
Normotensive rats; 5.0 mg/kg iv, 40 min
  DBP—diastolic blood pressure: 87.8 ± 8.7 mmHg
  SBP—systolic blood pressure: 113.0 ± 11.9 mmHg
Normotensive rats; 5.0 mg/kg iv, 50 min
  DBP—diastolic blood pressure: 85.8 ± 8.1 mmHg
  SBP—systolic blood pressure: 107.0 ± 12.7 ^a mmHg
Normotensive rats; 5.0 mg/kg iv, 60 min
  DBP—diastolic blood pressure: 86.7 ± 10.7 mmHg
  SBP—systolic blood pressure: 109.8 ± 12.2 mmHg
Normotensive rats; 5 mg/kg iv, normotensive rats
  influence on the diastolic blood pressure: did not influence the diastolic blood pressure
[3]
  attenuation of the methoxamine pressor response: 97%
[4]
  Blocks: 6/6
  Bradycardia: 6/6
  Mortality: 6/6
